Measured values reported in paper PMC10675077, “Antimicrobial Properties of New Polyamines Conjugated with Oxygen-Containing Aromatic Functional Groups” (Molecules, 2023).
≈ marks a conversion by molar mass, not a printed value. Marks after values point to notes of the source that are not given here.

Tests used:
[1] = tested on: E. coli; assay: Checkerboard titration synergy, E. coli; format: cell-based, Escherichia coli; conditions: synergistic when FICI ≤0.5
Description: The combined antimicrobial activity of the test compounds with the antibacterial or antifungal control agents was performed under the same conditions used for the MIC determination and following the procedures described by Carton Herrán, Reis de Sá et al. and Zharkova et al.. For each experiment, 16 samples (4 rows × 4 columns) in a total volume of 0.5 mL were prepared in tubes using an array of combinations between the MIC value and 0 μg/mL of the compound to be tested in each row, and between the MIC value and 0 μg/mL of the reference drug in each column. In this way, a variety of mixtures with different concentrations of them alone or in combination was obtained. Briefly, 0.5 mL of a microorganism culture was added to each one of the samples, and after incubation for 24 h with shaking at the appropriate temperature (37 °C or 30 °C), the tubs were visually inspected, and the OD600 was measured. From this information, the fractional inhibitory concentration index (FICI) was calculated according to the formula FIC index = ([A]/[CMI A]) + ([B]/[CMI B]), where [A] and [B] are respective concentrations of tested polyamine and reference drug in their combination effectively inhibiting the growth of bacteria or yeast, and [MIC A] and [MIC B] are the individual MICs of the tested polyamine and reference drug when they are used alone. An interaction is considered synergistic when the FICI value is ≤0.5 [41, 42].
To confirm the data obtained in the checkerboard assay, 30 μL of a ten-fold dilution of the tubes containing concentrations of half of the MIC of each one of the compounds alone (polyamine to be tested and reference drug) and one fourth of the MIC of each one in combination were also spread in LB or SC-ura plates (according to the microorganism considered in each case) and incubated at 37 °C or 30 °C. The visualisation of these plates was performed after 24 or 48 h, respectively. All these experiments were carried out in triplicate.

[2] = Potentiometric titrations in water (protonation constants); format: physicochemical; conditions: for log β (cumulative protonation constant): calculated as log β = ∑j log KHjL; for n, average number of positive charges at pH 7.4: calculated from protonation constants
Description: The potentiometric titrations were carried out at 298.1 ± 0.1 K using NaCl 0.15 M as a supporting electrolyte. The experimental procedure (burette, potentiometer, cell, stirrer, microcomputer, etc.) has been fully described elsewhere. The acquisition of the EMF data was performed with the computer program PASAT [50]. The reference electrode was a Ag/AgCl electrode in a saturated KCl solution. The glass electrode was calibrated as a hydrogen-ion concentration probe via the titration of previously standardised amounts of HCl with CO2-free NaOH solutions and the equivalent point determined using the Gran method, which provides the standard potential, E^θ′, and the ionic product of water (pKw = 13.73(1)).
The computer program […] was used to calculate the protonation constants. The pH range investigated was 2.5–11.0, and the concentration of the ligands ranged from 5 × 10^−4 to 5 × 10^−[…]. The different titration curves for each system (at least two) were treated either as a single set or as separated curves without significant variations in the values of the stability constants. Finally, the sets of data were merged and treated simultaneously to give the final stability constants.

[3] = Cytotoxicity, flow cytometry viability assay with propidium iodide; format: cell-based, human; conditions: human, Jurkat cells (human lymphocytic leukaemia, ATCC TIB-152), 24 h treatment, average of three experiments, read-out: IC50, cytotoxicity on the human Jurkat cell line
Description: The cytotoxicity of the compounds was assessed via flow cytometry with a viability assay using propidium iodide (PI), a DNA-binding fluorescent probe not permeant to live cells, which is commonly used to detect dead cells in a population. The human lymphocytic leukaemia Jurkat cell line (ATCC TIB-152) was obtained from the American Type Cell Culture (Sigma-Aldrich) and grown in suspension in an RPMI 1640 medium (Thermo Fisher Scientific, Waltham, MA, USA) supplemented with L-glutamine, antibiotics, and 10% heat-inactivated foetal calf serum (FCS, Thermo Fisher Scientific, Waltham, MA, USA). For the viability assay, cells were seeded in plastic 96-well plates at […] in an RPMI 1640 medium supplemented with 5% FCS. The cells were treated for 24 h with a range of concentrations of the test compounds or with the same volume of phosphate buffer (PBS) in control wells. After incubation, cell suspensions were washed, resuspended in 400 μL fresh medium, and incubated for 5 min at room temperature in the dark with 3.75 μM PI (Sigma-Aldrich). Cell viability was determined via flow cytometry using a Gallios flow cytometer (Beckman Coulter). PI fluorescence was excited with an argon-ion laser at 488 nm and collected through a 620/630 nm band-pass emission. Cellular events were discriminated from debris using forward scatter (FS) and side scatter (SS) signals. Cell aggregates were excluded from analysis based on FS-integral and FS-peak. The gates applied for population discrimination were set manually based on control samples. For each sample, 10,000 events were collected. For further analysis, the cytometric data were exported to Kaluza 2.1 software (Beckman Coulter, Brea, CA, USA). Dead cells were identified and quantified as PI-positive events. The cytotoxic potency of test compounds was quantified using their IC50 values, i.e., the compound concentration at which cell viability is inhibited by 50%, as calculated via curve fitting and determined with the correlation coefficient (R2) using GraphPad Prism 9.0 software. Experiments were carried out in triplicate.

[4] = tested on: E. coli JM101; assay: Minimal bactericidal concentration, E. coli; format: cell-based, Escherichia coli; conditions: overnight incubation, plating on LB, bacteriostatic if growth at 4 times the MIC; for MBC: Escherichia coli, JM101
Description: Once the MIC was known, the samples were prepared as described in the previous section with polyamine concentrations corresponding to the MIC and half, double, and four times its value. After overnight incubation with the microorganisms, 30 μL of a ten-fold dilution of each one was spread in LB (in the case of bacterial strains) or SC-ura (for yeast strains) plates. They were incubated for 20 h at 37 °C (bacteria) or 48 h at 30 °C (yeasts), and the level of growth was determined. […] Experiments were carried out at least three times.

[5] = 298 K, 0.15 mol/dm^3 NaCl, error in last figure in parentheses

Row | Compound | Synergy with Ampicillin [1] | Synergy with Ciprofloxacin [1] | Synergy with Doxycycline [1] | Synergy with Gentamicin [1] | log β (cumulative protonation constant) ([2]; 298 K, 0.15 mol/dm^3 NaCl) | n, average number of positive charges at pH 7.4 [2] | IC50 at 24 h [3] | Minimal bactericidal concentration (MBC), E. coli JM101 [4] | Stepwise protonation constant (log K), H2L + H ⇄ H3L [2, 5] | Stepwise protonation constant (log K), H3L + H ⇄ H4L [2, 5] | Stepwise protonation constant (log K), H4L + H ⇄ H5L [2, 5] | Stepwise protonation constant (log K), H5L + H ⇄ H6L [2, 5] | Stepwise protonation constant (log K), L + H ⇄ HL [2, 5] | Stepwise protonation constant (log K), LH + H ⇄ H2L [2, 5] | MBC [4]
1 | Oc1ccc(CNCCN2CCNCc3cccc(n3)CNCC2)cc1 [Compound 7a] | - | - | - | positive results and + | 35.48 | 2.4 | 951 µg/mL (≈ 2670 µM) | Bacteriostatic |  |  |  |  |  |  | 
2 | N^1-(benzo[d][1,3]dioxol-5-ylmethyl)-N^3-(2-((2-((3-((benzo[d][1,3]dioxol-5-ylmethyl)amino)propyl)amino)ethyl)(2-((3-(((2,3-dihydrobenzofuran-6-yl)methyl)amino)propyl)amino)ethyl)amino)ethyl)propane-1,3-diamine [Compound 4a] |  |  |  |  | 51.60 | 4.5 |  | 10 ^a µg/mL | 9.12 (1) | 8.07 (1) | 7.48 (1) | 6.35 (2) | 10.95 (1) | 9.63 (1) | 
3 | Oc1ccccc1CNCCN1CCNCc2cccc(n2)CNCC1 [Compound 6a] | no synergy and - | no synergy and - | no synergy and - | no synergy and - |  | 1.91 | 98 µg/mL (≈ 276 µM) |  |  |  |  |  |  |  | 10 µg/mL (≈ 28.1 µM)
4 | c1cc2nc(c1)CNCCN(CCNCc1ccc3c(c1)CCO3)CCNC2 [Compound 8a, 2-(3,6,9-triaza-1(2,6)-pyridinacyclodecaphane-6-yl)-N-((2,3-dihydrobenzofuran-5-yl)methyl)ethan-1-amine] | positive results and + | - | positive results and + | positive results and + | 26.17 | 2.4 | 128 µg/mL (≈ 335 µM) |  | 7.296 (4) |  |  |  | 9.943 (3) | 8.736 (3) | 60 µg/mL (≈ 157 µM)
5 | c1cc2nc(c1)CNCCN(CCNCc1ccc3c(c1)OCO3)CCNC2 [Compound 5a, 2-(3,6,9-triaza-1(2,6)-pyridinacyclodecaphane-6-yl)-N-(benzo[d][1,3]dioxol-5-ylmethyl)ethan-1-amine] |  |  |  |  | 26.56 | 2.4 | 37.8 µg/mL (≈ 98.7 µM) |  | 7.30 (1) |  |  |  | 10.48 (1) | 8.78 (1) | 10 µg/mL (≈ 26.1 µM)
